Data as given in ChEMBL document CHEMBL5726350, “Histone demethylase inhibitors” (2017).

Legend:
[1] = molecular target: Lysine-specific demethylase 5A (Homo sapiens, UniProt P29375); assay: Enzymatic Assay: The enzymatic assay of Jarid1A activity is based upon Time Resolved-Fluorescence Resonance Energy Transfer (TR-FRET) detection. The ability of test compounds to inhibit the activity of Jarid1A was determined in 384-well plate format under the following reaction conditions: 1 nM Jarid1A, 300 nM H3K4me3-biotin labeled peptide (Anaspec cat #64357), 2 μM alpha-ketoglutaric acid in assay buffer of 50 mM HEPES, pH7.3, 0.005% Brij35, 0.5 mM TCEP, 0.2 mg/ml BSA, 50 μM sodium L-ascorbate, and 2 μM ammonium iron(II) sulfate. Reaction product was determined quantitatively by TR-FRET after the addition of detection reagent Phycolink Streptavidin-allophycocyanin (Prozyme) and Europium-anti-mono- or di-methylated histone H3 lysine 4 (H3K4me1-2) antibody (PerkinElmer) in the presence of 5 mM EDTA in LANCE detection buffer (PerkinElmer) at a final concentration of 25 nM and 1 nM, respectively.The assay reaction was initiated by the following: 2 μl of the mixture of 900 nM H3K4me3-biotin labeled peptide and 6 μM alpha-ketoglutaric acid with 2 μl of 11-point serial diluted inhibitor in 3% DMSO was added to each well of plate, followed by the addition of 2 μl of 3 nM Jarid1A to initiate the reaction.
[2] = molecular target: Lysine-specific demethylase 5B (Homo sapiens, UniProt Q9UGL1); assay: Enzymatic Assay: The ability of test compounds to inhibit the activity of Jarid1B was determined in 384-well plate format under the following reaction conditions: 0.8 nM Jarid1B, 300 nM H3K4me3-biotin labeled peptide (Anaspec cat #64357), 2 μM alpha-ketoglutaric acid in assay buffer of 50 mM HEPES, pH7.3, 0.005% Brij35, 0.5 mM TCEP, 0.2 mg/ml BSA, 50 μM sodium L-ascorbate, and 2 μM ammonium iron(II) sulfate. Reaction product was determined quantitatively by TR-FRET after the addition of detection reagent Phycolink Streptavidin-allophycocyanin (Prozyme) and Europium-anti-mono- or di-methylated histone H3 lysine 4 (H3K4me1-2) antibody (PerkinElmer) in the presence of 5 mM EDTA in LANCE detection buffer (PerkinElmer) at a final concentration of 25 nM and 1 nM, respectively.The assay reaction was initiated by the following: 2 μl of the mixture of 900 nM H3K4me3-biotin labeled peptide and 6 μM alpha-ketoglutaric acid with 2 μl of 11-point serial diluted inhibitor in 3% DMSO was added to each well of the plate, followed by the addition of 2 μl of 2.4 nM Jarid1B to initiate the reaction. The reaction mixture was incubated at room temperature for 30 minutes, and terminated by the addition of 6 μl of 5 mM EDTA in LANCE detection buffer containing 50 nM Phycolink Streptavidin-allophycocyanin and 2 nM Europium-anti-H3K4me1-2 antibody.
[3] = molecular target: T1, Lysine-specific demethylase 4C (Homo sapiens, UniProt Q9H3R0); assay: Enzymatic Assay: The ability of test compounds to inhibit the activity of JMJD2C was determined in 384-well plate format under the following reaction conditions: 0.3 nM JMJD2C, 300 nM H3K9me3-biotin labeled peptide (Anaspec cat #64360), 2 μM alpha-ketoglutaric acid in assay buffer of 50 mM HEPES, pH7.3, 0.005% Brij35, 0.5 mM TCEP, 0.2 mg/ml BSA, 50 μM sodium L-ascorbate, and 2 μM ammonium iron(II) sulfate. Reaction product was determined quantitatively by TR-FRET after the addition of detection reagent Phycolink Streptavidin-allophycocyanin (Prozyme) and Europium-anti-di-methylated histone H3 lysine 9 (H3K9me2) antibody (PerkinElmer) in the presence of 5 mM EDTA in LANCE detection buffer (PerkinElmer) at a final concentration of 50 nM and 1 nM, respectively.The assay reaction was initiated by the following: 2 μl of the mixture of 900 nM H3K9me3-biotin labeled peptide and 6 μM alpha-ketoglutaric acid with 2 μl of 11-point serial diluted inhibitor in 3% DMSO were added to each well of the plate, followed by the addition of 2 μl of 0.9 nM JMJD2C to initiate the reaction. The reaction mixture was incubated at room temperature for 30 minutes, and terminated by the addition of 6 μl of 5 mM EDTA in LANCE detection buffer containing 100 nM Phycolink Streptavidin-allophycocyanin and 2 nM Europium-anti-H3K9me2 antibody. […]
T1 sequence (Q9H3R0 whole entry): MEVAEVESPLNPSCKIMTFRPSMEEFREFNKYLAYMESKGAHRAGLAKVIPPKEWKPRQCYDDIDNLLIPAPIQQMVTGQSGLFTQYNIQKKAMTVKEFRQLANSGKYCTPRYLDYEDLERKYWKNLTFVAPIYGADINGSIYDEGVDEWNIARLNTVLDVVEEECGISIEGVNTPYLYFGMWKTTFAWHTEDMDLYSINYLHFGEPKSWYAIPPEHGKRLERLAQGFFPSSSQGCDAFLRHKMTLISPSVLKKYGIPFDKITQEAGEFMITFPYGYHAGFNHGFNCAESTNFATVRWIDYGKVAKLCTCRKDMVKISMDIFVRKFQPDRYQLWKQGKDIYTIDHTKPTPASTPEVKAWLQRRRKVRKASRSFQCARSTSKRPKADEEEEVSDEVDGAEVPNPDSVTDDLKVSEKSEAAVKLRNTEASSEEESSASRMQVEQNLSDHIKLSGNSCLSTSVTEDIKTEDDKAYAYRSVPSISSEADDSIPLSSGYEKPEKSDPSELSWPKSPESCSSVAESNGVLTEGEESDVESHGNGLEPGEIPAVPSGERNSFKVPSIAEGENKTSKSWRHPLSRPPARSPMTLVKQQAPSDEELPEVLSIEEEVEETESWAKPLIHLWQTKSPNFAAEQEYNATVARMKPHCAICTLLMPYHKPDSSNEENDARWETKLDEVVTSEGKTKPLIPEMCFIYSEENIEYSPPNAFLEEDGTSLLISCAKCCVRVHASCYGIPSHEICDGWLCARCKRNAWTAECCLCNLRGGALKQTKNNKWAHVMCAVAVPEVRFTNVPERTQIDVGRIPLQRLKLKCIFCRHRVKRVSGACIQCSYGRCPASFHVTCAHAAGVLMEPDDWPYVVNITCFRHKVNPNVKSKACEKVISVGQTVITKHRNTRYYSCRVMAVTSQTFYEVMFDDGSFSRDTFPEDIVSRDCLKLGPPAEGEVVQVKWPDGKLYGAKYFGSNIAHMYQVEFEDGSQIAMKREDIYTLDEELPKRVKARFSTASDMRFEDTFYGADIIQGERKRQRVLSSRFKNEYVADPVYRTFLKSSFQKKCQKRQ

Measured: IC50

Sequence of Lysine-specific demethylase 5A (P29375 whole entry): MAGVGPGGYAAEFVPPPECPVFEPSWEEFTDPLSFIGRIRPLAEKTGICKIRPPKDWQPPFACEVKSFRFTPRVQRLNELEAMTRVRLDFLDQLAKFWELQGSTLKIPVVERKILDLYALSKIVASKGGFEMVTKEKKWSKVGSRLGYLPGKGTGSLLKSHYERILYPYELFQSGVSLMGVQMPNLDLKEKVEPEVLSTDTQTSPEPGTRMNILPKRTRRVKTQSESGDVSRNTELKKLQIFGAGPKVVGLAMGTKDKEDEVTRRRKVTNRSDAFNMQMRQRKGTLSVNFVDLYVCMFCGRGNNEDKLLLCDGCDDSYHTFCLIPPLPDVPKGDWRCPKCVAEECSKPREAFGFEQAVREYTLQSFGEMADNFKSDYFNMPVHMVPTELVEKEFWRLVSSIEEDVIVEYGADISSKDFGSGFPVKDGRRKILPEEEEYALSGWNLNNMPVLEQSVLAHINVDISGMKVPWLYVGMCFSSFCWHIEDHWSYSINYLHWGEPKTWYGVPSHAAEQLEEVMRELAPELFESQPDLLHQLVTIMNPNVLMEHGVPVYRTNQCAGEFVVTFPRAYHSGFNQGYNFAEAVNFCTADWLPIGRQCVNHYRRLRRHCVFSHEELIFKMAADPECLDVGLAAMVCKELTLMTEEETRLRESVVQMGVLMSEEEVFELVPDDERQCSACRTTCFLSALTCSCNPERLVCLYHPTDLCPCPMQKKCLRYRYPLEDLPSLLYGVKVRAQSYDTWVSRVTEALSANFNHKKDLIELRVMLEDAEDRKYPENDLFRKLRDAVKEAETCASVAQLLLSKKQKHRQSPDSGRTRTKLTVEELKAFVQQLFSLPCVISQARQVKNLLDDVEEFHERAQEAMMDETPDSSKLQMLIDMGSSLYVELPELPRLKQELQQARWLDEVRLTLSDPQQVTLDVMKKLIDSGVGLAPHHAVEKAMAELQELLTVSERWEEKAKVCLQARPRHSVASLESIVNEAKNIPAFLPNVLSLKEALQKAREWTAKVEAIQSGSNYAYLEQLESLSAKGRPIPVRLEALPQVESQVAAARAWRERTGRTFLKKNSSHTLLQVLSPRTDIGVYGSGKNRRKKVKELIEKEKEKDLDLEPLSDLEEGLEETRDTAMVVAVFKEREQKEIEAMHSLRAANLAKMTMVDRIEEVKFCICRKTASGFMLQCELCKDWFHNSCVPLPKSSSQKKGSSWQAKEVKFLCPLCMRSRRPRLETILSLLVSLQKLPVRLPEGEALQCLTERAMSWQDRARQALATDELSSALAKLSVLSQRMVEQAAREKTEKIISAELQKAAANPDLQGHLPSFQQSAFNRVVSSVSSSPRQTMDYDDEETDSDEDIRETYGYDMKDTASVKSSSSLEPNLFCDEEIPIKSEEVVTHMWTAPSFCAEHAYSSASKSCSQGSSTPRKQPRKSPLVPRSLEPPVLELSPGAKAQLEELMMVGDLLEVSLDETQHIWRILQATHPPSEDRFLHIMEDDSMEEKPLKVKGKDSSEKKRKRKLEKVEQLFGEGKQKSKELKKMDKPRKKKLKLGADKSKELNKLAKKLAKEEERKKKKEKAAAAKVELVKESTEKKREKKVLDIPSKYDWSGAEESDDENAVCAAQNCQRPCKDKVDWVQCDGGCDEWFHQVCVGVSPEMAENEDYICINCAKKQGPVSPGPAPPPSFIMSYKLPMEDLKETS
Sequence of Lysine-specific demethylase 5B (Q9UGL1 whole entry): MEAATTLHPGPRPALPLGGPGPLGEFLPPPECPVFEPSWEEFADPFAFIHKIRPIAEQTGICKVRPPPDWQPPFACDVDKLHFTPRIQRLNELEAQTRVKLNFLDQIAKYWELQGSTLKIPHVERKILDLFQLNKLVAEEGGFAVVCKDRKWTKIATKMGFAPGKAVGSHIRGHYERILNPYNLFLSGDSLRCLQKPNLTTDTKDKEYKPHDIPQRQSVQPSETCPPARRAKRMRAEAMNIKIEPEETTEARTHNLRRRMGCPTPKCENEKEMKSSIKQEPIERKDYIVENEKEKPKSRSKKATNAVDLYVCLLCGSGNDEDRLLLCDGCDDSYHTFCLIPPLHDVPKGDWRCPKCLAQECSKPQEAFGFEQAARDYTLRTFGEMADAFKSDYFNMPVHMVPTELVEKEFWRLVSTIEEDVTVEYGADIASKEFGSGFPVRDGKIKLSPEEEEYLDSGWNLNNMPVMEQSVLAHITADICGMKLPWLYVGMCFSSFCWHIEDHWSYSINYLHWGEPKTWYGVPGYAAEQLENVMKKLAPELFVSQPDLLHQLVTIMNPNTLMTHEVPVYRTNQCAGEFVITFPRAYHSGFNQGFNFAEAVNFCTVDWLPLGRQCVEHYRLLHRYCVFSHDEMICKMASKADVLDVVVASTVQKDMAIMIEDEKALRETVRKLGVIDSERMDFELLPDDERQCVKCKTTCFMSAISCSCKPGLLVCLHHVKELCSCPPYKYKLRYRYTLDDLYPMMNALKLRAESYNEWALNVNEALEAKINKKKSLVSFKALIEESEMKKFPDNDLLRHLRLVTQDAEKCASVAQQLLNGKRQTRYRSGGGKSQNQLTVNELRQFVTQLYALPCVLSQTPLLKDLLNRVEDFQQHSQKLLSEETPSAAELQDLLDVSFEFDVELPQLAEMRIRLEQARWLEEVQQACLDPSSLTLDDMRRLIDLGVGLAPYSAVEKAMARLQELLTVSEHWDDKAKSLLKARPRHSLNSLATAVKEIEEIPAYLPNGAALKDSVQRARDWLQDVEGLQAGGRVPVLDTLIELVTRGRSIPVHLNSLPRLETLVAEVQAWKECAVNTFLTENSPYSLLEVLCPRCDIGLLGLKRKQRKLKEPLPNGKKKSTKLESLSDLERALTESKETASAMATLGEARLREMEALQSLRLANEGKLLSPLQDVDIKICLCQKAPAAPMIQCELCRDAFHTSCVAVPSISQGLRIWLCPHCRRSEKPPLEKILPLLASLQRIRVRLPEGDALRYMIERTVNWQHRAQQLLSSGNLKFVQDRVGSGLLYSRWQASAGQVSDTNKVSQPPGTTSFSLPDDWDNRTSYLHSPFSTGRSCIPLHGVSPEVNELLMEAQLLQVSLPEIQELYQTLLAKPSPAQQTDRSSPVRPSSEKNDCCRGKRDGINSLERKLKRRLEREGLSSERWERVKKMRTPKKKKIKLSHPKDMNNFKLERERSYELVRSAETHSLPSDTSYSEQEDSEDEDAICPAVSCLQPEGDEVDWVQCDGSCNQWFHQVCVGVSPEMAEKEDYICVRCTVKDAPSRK

CC1(C)CCN(C(=O)c2cc3nccc(C(=O)O)c3[nH]2)CC1
< 0.1 µM: [1] | [2] | [3]
